Where two headings read alike, the source gives them in different places.
Experiments:
CAL27 cells [1] = experiment: Cell proliferation (CCK-8 reagent), CAL27; assay type: cell-based; details: Homo sapiens, read-out: IC50 for cell proliferation
Description: (§1) A. EGFR and Her2 levels. […] Cell lysates were prepared and determined for EGFR and Her2 protein levels by immunoblot analyses. B. Cell proliferation. […] (ESXm) for 24 hours. Cell proliferation was assessed using the CCK-8 reagent to detect metabolic active cells. Dose-response curves and IC50 values were generated using GraphPad Prism 4.0 (GraphPad Software, La Jolla, Calif.). […] C. Cell invasion. Cell invasion was determined as described from the cell invasion assay kit (Chemicon International, Temecula, Calif.). […] An aliquot (1×10^5 cells) of the prepared cell suspension was added to the top chamber and 10% FBS was added to the bottom chamber. After 24 hours, non-invading cells were gently removed from the interior of the inserts with a cotton-tipped swab. Invasive cells were stained and visualized. A representative field for each experimental condition is presented. D. Cell migration. Cell migration was determined using the wound healing assay. Cells were seeded and allowed to grow until confluence. […] A representative field for each experimental condition at 0 hour and 24 hours is presented.
(§2) Cell proliferation was assessed using the CCK-8 reagent to detect metabolic active cells. Dose-response curves and IC50 values were generated using GraphPad Prism 4.0 (GraphPad Software, La Jolla, Calif.).

SCC25 cells [2] = experiment: Cell proliferation (CCK-8 reagent), SCC25; assay type: cell-based; details: Homo sapiens, read-out: IC50 for cell proliferation
Description: as §1, §2

CAL27 cells [3] = details: 12.5 μmol/L
Description: (§3) A. EGFR and Her2 levels. […] Cell lysates were prepared and determined for EGFR and Her2 protein levels by immunoblot analyses. B. Cell proliferation. […] Cell proliferation was assessed using the CCK-8 reagent to detect metabolic active cells. Dose-response curves and IC50 values were generated using GraphPad Prism 4.0 (GraphPad Software, La Jolla, Calif.). […] C. Cell invasion. Cell invasion was determined as described from the cell invasion assay kit (Chemicon International, Temecula, Calif.). […] An aliquot (1×10^5 cells) of the prepared cell suspension was added to the top chamber and 10% FBS was added to the bottom chamber. After 24 hours, non-invading cells were gently removed from the interior of the inserts with a cotton-tipped swab. Invasive cells were stained and visualized. A representative field for each experimental condition is presented. D. Cell migration. Cell migration was determined using the wound healing assay. Cells were seeded and allowed to grow until confluence. […] A representative field for each experimental condition at 0 hour and 24 hours is presented.

[4] = tested on: EGFR and Her2 levels in CAL27 cells; details: 24 hours, immunoblot
Description: as §3

[5] = tested on: EGFR and Her2 levels in SCC25 cells; details: 24 hours, immunoblot
Description: as §3

SCC25 cells [6] = details: 15 μmol/L
Description: as §3

[7] = tested on: Her2 expression in SKBR3 cells; details: cited from earlier work
[8] = tested on: SKBR3 Her2-positive breast carcinoma cells; details: cited from earlier work
[9] = Precipitation in cell culture media; assay type: physicochemical; details: higher concentrations
[10] = tested on: phosphorylated erbB2 levels in SkBr3 cells
Description: ErbB2 and p-erbB2 ELISA: ELISA assays were performed based on those published elsewhere.[4] […] After 24 hours, media was removed carefully and cells were fixed and permeabilized with cold (−20° C.) methanol. The cells were then washed twice with TBST, blocked for 2 hours at room temperature with superblock (TBST solution from Pierce), incubated with the primary antibody overnight at 4° C. (as a 1:500 solution in superblock). Cells were then washed twice more with TBST and incubate with secondary antibody for 2 hours at room temperature (as a 1:1000 solution in superblock). After being washed 3 times with TBST, Slow TMB (Pierce) was added to measure antibody levels in accordance with the manufacturer's instructions and the absorbance at 370 nm was measured. The cells were washed 3 more times with TBST and total protein levels were measured at 560 nm using BCA reagent (Pierce). […] The resulting ratios were then normalized to cells treated with DMSO.

CAL27 HNSCC cells = experiment: Xenograft model of HNSCC, CAL27 in athymic nude mice

Description for SkBr3 (erbB2+) cells: Isobolograms were generated by computing dose fractions directly from the IC50s. Dose fraction is defined as the dose of one component in a combination required to exert a given effect (usually IC50, as in this case) divided by the dose of that component in isolation required to exert the same effect. Thus each combination reported has two dose fraction measurements (eg. dose fraction it and dose fraction lapatinib) that define the combinations x/y coordinates on the isobologram.
Dose fraction of A for combination AB=IC50(A in AB)/IC50(A in isolation)
Dose fraction of B for combination AB=IC50(B in AB)/IC50(B in isolation)
The sum of these x/y coordinates are the combination index. By definition, the CI for either agent in isolation is 1. For the null hypothesis (in which both agents act as though they are equivalent doses of the same agent) the CI will be 1. For combinations where the CI<1, synergy is present.
CI(combination index)=dose fraction A+dose fraction B.
For the experiments used to generate dose-effect curves for the isobolograms and selectivity experiments, cells were plated at 3000 cells per well in 96 well plates. […] The day after the final treatment, cell viability was measured using WST-1 reagent (Roche) in accordance with the manufacturer's instructions. […]

For `CC(C)C[C@]1(CCO)C[C@H](CN=[N+]=[N-])ON1Cc1ccc(-c2ccccc2)cc1` [biphenyl isoxazolidine], the IC50 (CAL27 cells [1]; CAL-27, 24 h) was 46.8 µM, the IC50 (SCC25 cells [2]; SCC-25, 24 h) was 50.3 µM and the Cell invasion (CAL27 cells [3]) was “dramatically suppressed”. The Cell migration (CAL27 cells [3]) was “dramatically suppressed”, the “EGFR and Her2 levels” value [4] was “dose-dependent decrease” and the “EGFR and Her2 levels” value [5] was “dose-dependent decrease”. For the same compound, the Cell invasion (SCC25 cells [6]) was “dramatically suppressed”, the Cell migration (SCC25 cells [6]) was “dramatically suppressed” and the Her2 expression [7] was “decreased Her2 expression”. For the same compound, the cell proliferation [8] was “inhibited cell proliferation”.
In the case of `C#Cc1cccc(Nc2ncnc3cc(OCCOC)c(OCCOC)cc23)c1` [erlotinib], the “precipitation out of cell culture media” value [9] is reported as “precipitate out of cell culture media at higher concentrations”.
In the case of `Cc1ccc(S(=O)(=O)n2ccc3c(OCC(O)CN(CCCCCN)C(=O)N4CCC(C5CCN(C(=O)C67CC8CC(CC(C8)C6)C7)CC5)CC4)cccc32)cc1` (stereo not shown) [Wrenchnolol, wrenchnolol, reference compound], the Her2 expression [7] is listed as “decreased Her2 expression” and the cell proliferation [8] is listed as “inhibited cell proliferation”.
For `CS(=O)(=O)CCNCc1ccc(-c2ccc3ncnc(Nc4ccc(OCc5cccc(F)c5)c(Cl)c4)c3c2)o1` [lapatinib, reference compound], the IC50 (CAL27 cells [1]; CAL-27, CAL27 cells, 24 hours of treatment, single agent) was 11.8 µM, the IC50 (SCC25 cells [2]; SCC-25, SCC25 cells, 24 hours of treatment, single agent) was 11.9 µM and the IC50 (SkBr3 (erbB2+) cells) was 0.048 ± 0.017 µM. For the same compound, the “effects on erbB2 and phosphorylated erbB2 levels as single agents” value [10] was “moderate effects”.
In the case of `CN(C)C/C=C/C(=O)Nc1cc2c(Nc3ccc(F)c(Cl)c3)ncnc2cc1O[C@H]1CCOC1` [afatinib], the mean tumor volume (CAL27 HNSCC cells) is reported as 43 mm^3 and the “mean tumor volume, single-agent afatinib arm compared to the combination treatment arm” value (CAL27 HNSCC cells) is reported as 2.1 fold.

— patent US20150017156A1, “ESX-MEDIATED TRANSCRIPTION MODULATORS AND RELATED METHODS” (THE OHIO STATE UNIVERSITY, priority 2011, published 2015)
